Calls of active or inactive are those of the source. The rule behind the calls is not given here.
What was measured:
MOLM-13 [1] = assay: Antiproliferative activity against human MOLM-13 cells incubated for 3 days by CCK8 assay; assay type: functional, cell-based; conditions: for IC50: MOLM-13, 72 h
MOLM-13 [2] = assay: Antiproliferative activity against human MOLM-13 cells assessed as cell viability at 0.1 uM incubated for 3 days by CCK8 assay relative to control; assay type: functional; conditions: MOLM-13, 72 h, time 3 day, read-out: Activity
[3] = molecular target: T1, Protein cereblon/Bromodomain-containing protein 4 (Homo sapiens, UniProt O60885+Q96SW2); assay: PROTAC activity at CRBN/BRD4 in human MOLM-13 cells assessed as BRD4 degradation at 1 uM incubated for 24 hrs by Western blot analysis; assay type: cell-based
OCI-AML-3 = assay: Antiproliferative activity against human OCI-AML-3 cells incubated for 3 days by CCK8 assay; assay type: functional, cell-based
KARPAS-299 = assay: Antiproliferative activity against human KARPAS-299 cells incubated for 3 days by CCK8 assay; assay type: functional, cell-based
Raji = assay: Antiproliferative activity against human Raji cells incubated for 3 days by CCK8 assay; assay type: functional, cell-based; conditions: 72 h
THP-1 = assay: Antiproliferative activity against human THP-1 cells incubated for 3 days by CCK8 assay; assay type: functional, cell-based; conditions: for IC50: THP-1, 72 h
Daudi = assay: Antiproliferative activity against human Daudi cells incubated for 3 days by CCK8 assay; assay type: functional, cell-based; conditions: 72 h
HL-60 = assay: Antiproliferative activity against human HL-60 cells incubated for 3 days by CCK8 assay; assay type: functional, cell-based; conditions: for IC50: HL-60, 72 h
[4] = molecular target: Protein cereblon/Eukaryotic peptide chain release factor GTP-binding subunit ERF3A (Homo sapiens, UniProt Q96SW2+P15170); assay: PROTAC activity at CRBN/GSPT1 in human MOLM-13 cells assessed as GSPT1 degradation at 100 nM incubated for 6 hrs by Western blot analysis; assay type: cell-based
SU-DHL-1 = assay: Antiproliferative activity against human SU-DHL-1 cells incubated for 3 days by CCK8 assay; assay type: functional, cell-based; conditions: SU-DHL-1, 72 h
NB-4 = assay: Antiproliferative activity against human NB4 cells incubated for 3 days by CCK8 assay; assay type: functional, cell-based; conditions: for IC50: NB-4, 72 h
[5] = molecular target: T1, Protein cereblon/Bromodomain-containing protein 4; assay: PROTAC activity at CRBN/BRD4 in human MOLM-13 cells assessed as BRD4 degradation at 100 nM incubated for 6 hrs by Western blot analysis; assay type: cell-based
[6] = Toxicity in IL2Rg-null NSG mouse xenografted with human MOLM-13 cells expressing GFP-Fluc assessed as animal death measured after 48 hrs
[7] = Toxicity in IL2Rg-null NSG mouse xenografted with human MOLM-13 cells expressing GFP-Fluc assessed as hemolysis measured after 48 hrs
[8] = molecular target: T2, Protein cereblon/Eukaryotic peptide chain release factor GTP-binding subunit ERF3A (Mus musculus) (UniProt Q8C7D2+Q8R050); assay: PROTAC activity at CRBN/GSPT1 in mouse A9 cells assessed as fold increase in translational readthrough activity at 0.8 to 20 uM incubated for 48 hrs by Western blot analysis relative to control; assay type: cell-based; conditions: dose 0.8-20 µM
[9] = molecular target: T2, Protein cereblon/Eukaryotic peptide chain release factor GTP-binding subunit ERF3A (Mus musculus); assay: PROTAC activity at CRBN/GSPT1 in mouse A9 cells harboring pCDH-BSD-M6/pIRES-GFluc assessed as GSPT1 degradation at 0.8 to 20 uM incubated for 48 hrs by Western blot analysis; assay type: cell-based; conditions: dose 0.8-20 µM
[10] = molecular target: T2, Protein cereblon/Eukaryotic peptide chain release factor GTP-binding subunit ERF3A (Mus musculus); assay: PROTAC activity at CRBN/GSPT1 in mouse A9 cells harboring pCDH-BSD-M6/pIRES-GFluc assessed as increase in translational readthrough activity at 0.8 to 20 uM incubated for 48 hrs by Western blot analysis; assay type: cell-based; conditions: dose 0.8-20 µM
A9 = assay: Effect on eRF1 expression in mouse A9 cells harboring pCDH-BSD-M6/pIRES-GFluc at 0.8 to 20 uM incubated for 48 hrs by Western blot analysis; assay type: functional, cell-based; conditions: dose 0.8-20 µM

T1 sequence (Q96SW2 whole entry, looked up, other chains not shown): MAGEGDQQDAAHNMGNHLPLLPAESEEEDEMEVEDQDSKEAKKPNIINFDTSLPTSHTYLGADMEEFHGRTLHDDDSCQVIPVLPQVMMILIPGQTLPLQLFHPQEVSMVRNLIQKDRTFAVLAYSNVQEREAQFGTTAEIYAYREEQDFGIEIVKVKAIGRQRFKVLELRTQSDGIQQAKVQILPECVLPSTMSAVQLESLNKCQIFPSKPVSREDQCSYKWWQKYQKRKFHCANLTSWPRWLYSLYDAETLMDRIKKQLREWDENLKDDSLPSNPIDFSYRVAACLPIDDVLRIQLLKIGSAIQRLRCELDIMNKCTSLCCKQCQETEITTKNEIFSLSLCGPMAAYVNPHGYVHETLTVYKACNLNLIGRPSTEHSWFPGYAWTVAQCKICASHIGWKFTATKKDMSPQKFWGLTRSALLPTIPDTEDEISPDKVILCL
Chain of Protein cereblon/Eukaryotic peptide chain release factor GTP-binding subunit ERF3A (P15170 whole entry, looked up): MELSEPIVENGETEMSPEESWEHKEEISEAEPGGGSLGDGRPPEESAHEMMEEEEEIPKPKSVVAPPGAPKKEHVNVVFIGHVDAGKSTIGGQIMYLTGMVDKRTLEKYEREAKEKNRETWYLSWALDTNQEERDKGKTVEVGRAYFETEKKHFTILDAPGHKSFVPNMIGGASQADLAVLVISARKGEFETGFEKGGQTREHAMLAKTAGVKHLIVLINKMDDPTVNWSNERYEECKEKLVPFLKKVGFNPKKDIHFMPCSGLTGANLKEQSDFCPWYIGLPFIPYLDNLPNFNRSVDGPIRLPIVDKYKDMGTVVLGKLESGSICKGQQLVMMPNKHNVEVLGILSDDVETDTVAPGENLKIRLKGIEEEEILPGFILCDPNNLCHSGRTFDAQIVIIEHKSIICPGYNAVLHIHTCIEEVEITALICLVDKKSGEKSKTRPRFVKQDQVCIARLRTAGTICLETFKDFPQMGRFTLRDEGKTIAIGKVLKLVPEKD
Chain of Protein cereblon/Eukaryotic peptide chain release factor GTP-binding subunit ERF3A (Q96SW2 whole entry, looked up): as the sequence (Q96SW2 whole entry, looked up, other chains not shown) above
T2 sequence (Q8C7D2 whole entry, looked up): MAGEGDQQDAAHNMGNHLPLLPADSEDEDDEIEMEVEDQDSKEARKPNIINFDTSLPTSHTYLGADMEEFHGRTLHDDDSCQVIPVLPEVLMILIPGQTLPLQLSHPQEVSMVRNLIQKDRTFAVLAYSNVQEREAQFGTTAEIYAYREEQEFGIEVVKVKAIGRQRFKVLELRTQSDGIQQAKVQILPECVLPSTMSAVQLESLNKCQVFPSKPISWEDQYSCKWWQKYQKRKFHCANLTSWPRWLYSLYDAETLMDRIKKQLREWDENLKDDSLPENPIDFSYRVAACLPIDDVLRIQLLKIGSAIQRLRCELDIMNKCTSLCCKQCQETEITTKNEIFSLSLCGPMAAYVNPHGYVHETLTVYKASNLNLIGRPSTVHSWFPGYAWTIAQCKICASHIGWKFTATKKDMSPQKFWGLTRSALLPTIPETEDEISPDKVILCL
T2 sequence (Q8R050 whole entry, looked up): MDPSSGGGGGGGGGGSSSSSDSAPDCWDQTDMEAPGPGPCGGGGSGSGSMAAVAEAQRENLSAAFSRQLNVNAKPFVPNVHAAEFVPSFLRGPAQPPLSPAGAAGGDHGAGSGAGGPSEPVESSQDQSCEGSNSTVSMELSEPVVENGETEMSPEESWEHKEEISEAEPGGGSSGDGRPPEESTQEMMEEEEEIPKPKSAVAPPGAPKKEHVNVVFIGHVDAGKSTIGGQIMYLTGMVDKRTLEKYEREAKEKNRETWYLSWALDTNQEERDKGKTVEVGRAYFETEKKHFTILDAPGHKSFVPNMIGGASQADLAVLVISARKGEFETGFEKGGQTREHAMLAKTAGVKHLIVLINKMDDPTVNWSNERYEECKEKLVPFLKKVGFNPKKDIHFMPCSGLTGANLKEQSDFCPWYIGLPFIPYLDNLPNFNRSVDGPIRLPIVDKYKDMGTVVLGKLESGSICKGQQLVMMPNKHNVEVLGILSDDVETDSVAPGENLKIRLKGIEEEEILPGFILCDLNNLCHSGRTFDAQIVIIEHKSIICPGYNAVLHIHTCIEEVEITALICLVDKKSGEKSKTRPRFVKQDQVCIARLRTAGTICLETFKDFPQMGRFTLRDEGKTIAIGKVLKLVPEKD

SMILES	IC50 (MOLM-13 [1])	viability at 0.1 µM (MOLM-13 [2])	Activity [3]	IC50 (OCI-AML-3; Homo sapiens, OCI-AML-3, 72 h)	IC50 (KARPAS-299; Homo sapiens, KARPAS-299, 72 h)	IC50 (Raji)	also measured
Cc1sc2c(c1C)C(c1ccc(Cl)cc1)=N[C@@H](CC(=O)N1CCC(CN3CCN(c4ccc5c(c4)C(=O)N(C4CCC(=O)NC4=O)C5=O)CC3)CC1)c1nnc(C)n1-2 (some centres undefined)	0.0614 µM	15.5%					
Cc1sc2c(c1C)C(c1ccc(Cl)cc1)=N[C@@H](CC(=O)N1CCN(C3CN(c4ccc5c(c4)C(=O)N(C4CCC(=O)NC4=O)C5=O)C3)CC1)c1nnc(C)n1-2 (some centres undefined)	0.0187 µM	7.24%	Active				
Cc1sc2c(c1C)C(c1ccc(Cl)cc1)=N[C@@H](CC(=O)N1CC(CN3CCN(c4ccc5c(c4)C(=O)N(C4CCC(=O)NC4=O)C5=O)CC3)C1)c1nnc(C)n1-2 (some centres undefined)	0.0338 µM	7.45%	Active				
O=C1CCC(N2Cc3cc(CNC(=O)C(F)(F)c4ccc(Cl)cc4)ccc3C2=O)C(=O)N1 (centres undefined)	0.181 µM		Active	> 10 µM	> 10 µM	> 10 µM	
Cc1sc2c(c1C)C(c1ccc(Cl)cc1)=N[C@@H](CC(=O)N1CC(N3CCN(c4cccc5c4C(=O)N(C4CCC(=O)NC4=O)C5=O)CC3)C1)c1nnc(C)n1-2 (some centres undefined)		124%					
Cc1sc2c(c1C)C(c1ccc(Cl)cc1)=N[C@@H](CC(=O)N1CCC(CN3CCN(c4cccc5c4C(=O)N(C4CCC(=O)NC4=O)C5=O)CC3)CC1)c1nnc(C)n1-2 (some centres undefined)		79.6%					
Cc1sc2c(c1C)C(c1ccc(Cl)cc1)=N[C@@H](CC(=O)NCCCCNc1cccc3c1C(=O)N(C1CCC(=O)NC1=O)C3=O)c1nnc(C)n1-2 (some centres undefined)	0.422 µM			1.21 µM	7.72 µM	0.936 µM	
Cc1sc2c(c1C)C(c1ccc(Cl)cc1)=N[C@@H](CC(=O)N1CCN(CC3CN(c4cccc5c4C(=O)N(C4CCC(=O)NC4=O)C5=O)C3)CC1)c1nnc(C)n1-2 (some centres undefined)	0.0149 µM	11.7%	Active	0.0753 µM	3.36 µM	0.605 µM	IC50 (THP-1): 0.103 µM; IC50 (Daudi): 0.257 µM; IC50 (HL-60): 0.0637 µM; Activity [4]: Active; IC50 (SU-DHL-1): 0.117 µM; IC50 (NB-4): 0.0192 µM; Activity [5]: Active
Cc1sc2c(c1C)C(c1ccc(Cl)cc1)=N[C@@H](CC(=O)N1CCN(CC3CCN(c4cccc5c4C(=O)N(C4CCC(=O)NC4=O)C5=O)CC3)CC1)c1nnc(C)n1-2 (some centres undefined)	0.0466 µM	18%	Active				
Cc1sc2c(c1C)C(c1ccc(Cl)cc1)=N[C@@H](CC(=O)N1CC(N3CCN(c4ccc5c(c4)C(=O)N(C4CCC(=O)NC4=O)C5=O)CC3)C1)c1nnc(C)n1-2 (some centres undefined)	0.0742 µM	9.49%					
Cc1sc2c(c1C)C(c1ccc(Cl)cc1)=N[C@@H](CC(=O)N1CC(CN3CCN(c4cccc5c4C(=O)N(C4CCC(=O)NC4=O)C5=O)CC3)C1)c1nnc(C)n1-2 (some centres undefined)		110%					
Cc1sc2c(c1C)C(c1ccc(Cl)cc1)=N[C@@H](CC(=O)N1CCN(CC3CN(c4ccc5c(c4)C(=O)N(C4CCC(=O)NC4=O)C5=O)C3)CC1)c1nnc(C)n1-2 (some centres undefined)	0.0135 µM	8.1%	Active	0.0277 µM	0.33 µM	0.0821 µM	IC50 (THP-1): 0.032 µM; IC50 (Daudi): 0.178 µM; IC50 (HL-60): 0.0191 µM; Activity [4]: Active; IC50 (SU-DHL-1): 0.035 µM; IC50 (NB-4): 0.00603 µM; Activity [5]: Active
Cc1sc2c(c1C)C(c1ccc(Cl)cc1)=N[C@@H](CC(=O)N1CCN(C3CCN(c4ccc5c(c4)C(=O)N(C4CCC(=O)NC4=O)C5=O)CC3)CC1)c1nnc(C)n1-2 (some centres undefined)	0.00607 µM	6.8%	Active	0.0173 µM	0.0206 µM	0.0139 µM	IC50 (THP-1): 0.0164 µM; IC50 (Daudi): 0.0102 µM; IC50 (HL-60): 0.00738 µM; Activity [4]: Active; Activity [6]: Toxic; IC50 (SU-DHL-1): 0.0111 µM; IC50 (NB-4): 0.00426 µM; Activity [7]: Toxic; Activity [5]: Active
Cc1sc2c(c1C)C(c1ccc(Cl)cc1)=N[C@@H](CC(=O)N1CCC(N3CCN(c4ccc5c(c4)C(=O)N(C4CCC(=O)NC4=O)C5=O)CC3)CC1)c1nnc(C)n1-2 (some centres undefined)	0.0254 µM	7.55%					
Cc1sc2c(c1C)C(c1ccc(Cl)cc1)=N[C@@H](CC(=O)N1CCC(N3CCN(c4cccc5c4C(=O)N(C4CCC(=O)NC4=O)C5=O)CC3)CC1)c1nnc(C)n1-2 (some centres undefined)		72%					
Cc1sc2c(c1C)C(c1ccc(Cl)cc1)=N[C@@H](CC(=O)NCCNc1cccc3c1C(=O)N(C1CCC(=O)NC1=O)C3=O)c1nnc(C)n1-2 (some centres undefined)	0.15 µM		Active	0.325 µM	0.82 µM	0.183 µM	IC50 (THP-1): 0.553 µM; Activity (THP-1; time 3.0 day): Active; IC50 (Daudi): 0.266 µM; IC50 (OCI-AML-3; oci-aml-3): 0.381 µM; Activity (OCI-AML-3; time 3.0 day): Active; IC50 (KARPAS-299; karpas-299): 0.913 µM; IC50 (HL-60): 0.343 µM; Activity (HL-60; time 3.0 day): Active; fold change (FC) [8]: 7; Activity [9]: Active; Activity [10]: Active; Activity (A9): No effect; Activity (MOLM-13 [1]; time 3.0 day): Active; IC50 (SU-DHL-1): 0.195 µM; IC50 (NB-4): 0.0926 µM; Activity (NB-4; time 3.0 day): Active
Cc1sc2c(c1C)C(c1ccc(Cl)cc1)=N[C@@H](CC(=O)N1CCN(C3CCN(c4cccc5c4C(=O)N(C4CCC(=O)NC4=O)C5=O)CC3)CC1)c1nnc(C)n1-2 (some centres undefined)	0.0372 µM	19.3%	Active				
Cc1sc2c(c1C)C(c1ccc(Cl)cc1)=N[C@@H](CC(=O)N1CCN(C3CN(c4cccc5c4C(=O)N(C4CCC(=O)NC4=O)C5=O)C3)CC1)c1nnc(C)n1-2 (some centres undefined)		66.2%					

Reference: ChEMBL document CHEMBL6109072, “Discovery of highly potent dual GSPT1/BRD4 degraders with anti-AML activity” (Eur J Med Chem, 2025)
